Legend:
AKT phosphorylation = experiment: Western AKT cell-based phosphorylation assay, PANC-1; details: Homo sapiens
Procedure: Human tumor-derived pancreatic cancer cell line Panc-1 was purchased from American Type Culture Collection and grown in complete DMEM-High Glucose supplemented with penicillin (100 U/mL), streptomycin (100 μg/mL), and 10% heat-inactivated FBS at 37° C. in a humidified incubator with 5% CO2.
(§1) Method: Cells were plated at 350000 cells/well density in a 12-well plate, allowed 3 hours to adhere to the plate, then starved in the appropriate medium in the presence of 0.5% FBS overnight. The small molecules to be tested were added to the cells in the final concentration of 10 μM in the presence of 0.3% DMSO for 6 hours incubation at 37° C. Next, cells were stimulated with 1.5 ng/ml EGF for 15 minutes then cells were lysed with lysis buffer containing 1% Triton X-100, EDTA, and Halt™ Protease & Phosphatase Inhibitor Cocktail (Thermo Scientific). Protein concentration was assessed by BCA protein assay (Thermo Scientific). Phosphorylation level of Akt was determined by western blot.
(§2) Western blot protocol: Equal amounts of protein (15-50 μg) were separated by SDS-PAGE and transferred to nitrocellulose membranes (Invitrogen by Thermo Fisher Scientific). The membrane was stained with Ponceau S Stain (Boston BioProducts) to verify uniform protein loading. Membranes were blocked with 10% milk and phosphorylation levels of Akt were assessed by incubating overnight at 4° C. with anti-phospho-Akt (Ser473) antibody (Cell Signaling) followed by HRP-conjugated secondary antibody (Jackson Immunoresearch, West Grove, PA). Bands were incubated in Amersham ECL Prime Western Blotting Detection Reagent (GE Healthcare) and visualized using the ChemiDoc MP imaging system (Bio-Rad).

MAPK phosphorylation = experiment: MAPK cell-based phosphorylation assay (ELISA or Western), PANC-1; details: Homo sapiens, 10 μM
Procedure: Cell lines: Tumor-derived pancreatic cancer cell line PANC-1 was purchased from ATCC and were and grown in DMEM-High Glucose supplemented with penicillin (100 U/mL), streptomycin (100 μg/mL), and 10% heat-inactivated FBS at 37° C. in a humidified incubator with 5% CO2.
Method: Cells were plated at 7500 cells/well density in a 96-well plate, allowed 3 hours to adhere to the plate, then starved in DMEM plus 0.5% FBS overnight. The small molecules to be tested were added to the cells in the final concentration of 10 μM in the presence of 0.3% DMSO for 6 hours incubation at 37° C. For IC50 value determination, serial dilutions of compounds were added to cells under the same conditions. Next, cells were stimulated with 1.5 ng/mL EGF for 15 minutes followed by cell fixation with 4% formaldehyde in PBS at room temperature for 20 minutes. Cell-direct ELISA determined phosphorylation level of MAPK.
Cell-direct ELISA: For each well, cells were permeabilized with 0.1% PBS-Triton X-100, quenched with 0.06% H2O2 in 0.1% PBS-Triton X-100, and probed with anti-phospho-MAPK antibodies (R&D Systems) followed by HRP-conjugated secondary antibody (Jackson Immunoresearch, West Grove, PA). Next, a 50 μM solution of the fluorescent substrate AmpliFlu Red (Sigma) was added and incubated at RT for 20 minutes. At the end of the incubation time, phosphorylation level of MAPK was determined by measuring fluorescence at 595 nm using SpectraMax M3 plate reader (Molecular Devices).
Cell lines: Human NSCLC cells NCI-H1975 and NCI-H1299, and tumor-derived pancreatic cancer cell lines Panc-1, MIA-PaCa-2, and BxPC3, were all purchased from American Type Culture Collection and grown in complete RPMI medium (BxPC3, NCI-H1975 and NCI-H1299) or DMEM-High Glucose (Panc1 and MIA-PaCa-2), supplemented with penicillin (100 U/mL), streptomycin (100 μg/mL), and 10% heat-inactivated FBS at 37° C. in a humidified incubator with 5% CO2.
as §1, with “C. For IC50 value determination, serial dilutions of compounds were added to cells under the same conditions.” for “C.”, “MAPK” for “Akt”
as §2, with “MAPK” for “Akt”, “anti-phospho-p44/42 (Thr202/Tyr204)” for “anti-phospho-Akt (Ser473)”

[1] = 6 hours, EGF stimulation, PANC-1

Structure (SMILES)	inhibition at 10 µM (AKT phosphorylation; [1]) [%]	inhibition at 10 µM (MAPK phosphorylation; [1]) [%]	inhibition at 10 µM (AKT phosphorylation; PANC-1 (Table 4C)) [%]	inhibition at 10 µM (MAPK phosphorylation; PANC-1 (Table 4C)) [%]
COCCn1cc(-c2sc3nc(-c4nccn4C)nc(N4CCC(OC)C4)c3c2-c2ccccc2)cn1 (stereo not shown) [drawing 433]	0	51 to 75		
COC1CCN(c2nc(-c3nccn3C)nc3sc(-c4ccncc4C)c(-c4ccccc4)c23)C1 (stereo not shown) [drawing 434]	0	0		
COC1CCN(c2nc(-c3nccn3C)nc3sc(-c4cnn(C)c4)c(-c4ccccc4)c23)C1 (stereo not shown) [drawing 435]	0	1 to 25		
COC1CCN(c2nc(-c3nccn3C)nc3sc(-c4ccc(CO)cc4)c(-c4ccccc4)c23)C1 (stereo not shown) [drawing 436]	0	51 to 75		
COC1CCN(c2nc(-c3nccn3C)nc3sc(-c4ccc(N)nc4C)c(-c4ccccc4)c23)C1 (stereo not shown) [drawing 437]	0	26 to 50		
COC1CCN(c2nc(-c3nccn3C)nc3sc(-c4ccccc4CO)c(-c4ccccc4)c23)C1 (stereo not shown) [drawing 438]	0	0		
COc1nscc1-c1sc2nc(-c3nccn3C)nc(N3CCC(OC)C3)c2c1-c1ccccc1 (stereo not shown) [drawing 439]	0	51 to 75		
COC1CCN(c2nc(-c3nccn3C)nc3sc(-c4ccnc(N(C)C)c4)c(-c4ccccc4)c23)C1 (stereo not shown) [drawing 440]	0	76 to 100		
COC1CCN(c2nc(-c3nccn3C)nc3sc(Br)c(-c4ccccc4)c23)C1 (stereo not shown) [drawing 441]	0	26 to 50		
COc1ccc(-c2c(-c3cccc(OC)c3F)sc3nc(-c4nccn4C)nc(N4CCC(OC)C4)c23)cc1 (stereo not shown) [drawing 442]	0	0		
COCC1CN(c2nc(-c3nccn3C)nc3sc(-c4cccc(OC)c4F)c(-c4ccc(OC)cc4)c23)C1 [drawing 443]	0	76 to 100		
COc1cccc(-c2sc3nc(-c4nccn4C)nc(N4CCC(OC)C4)c3c2-c2ccccc2)c1F (stereo not shown) [drawing 444]	76 to 100	76 to 100		
COc1c(O)nc(-c2ccccn2)nc1Oc1cnn(C)c1 [drawing 445]	0	1 to 25		
COc1c(O)nc(-c2ccccn2)nc1Oc1ccc2ncccc2c1 [drawing 446]	0	0		
COc1c(O)nc(-c2ccccn2)nc1Oc1cccnc1 [drawing 447]	0	0		
COc1cccc(Oc2nc(-c3ccccn3)nc(O)c2OC)c1 [drawing 448]	0	0		
COc1ccc(Oc2nc(-c3ccccn3)nc(O)c2OC)cc1 [drawing 449]	0	0		
COCCc1ccc(Oc2nc(-c3ccccn3)nc(O)c2OC)cc1 [drawing 450]	0	0		
COc1c(O)nc(-c2ccccn2)nc1Oc1ccccc1 [drawing 451]	0	0		
O=C(c1nc(-c2ccccn2)nc(O)c1O)N1CCc2ccccc2C1 [drawing 452]	0	0		
O=C(c1nc(-c2ccccn2)nc(O)c1O)N1CCOCC1 [drawing 453]	0	0		
CN(Cc1ccccc1)C(=O)c1nc(-c2ccccn2)nc(O)c1O [drawing 454]	0	0		

Structure (SMILES)	inhibition at 10 µM (AKT phosphorylation; [1]) [%]	inhibition at 10 µM (MAPK phosphorylation; [1]) [%]	inhibition at 10 µM (AKT phosphorylation; PANC-1 (Table 4C)) [%]	inhibition at 10 µM (MAPK phosphorylation; PANC-1 (Table 4C)) [%]
O=C(NCc1ccccc1)c1nc(-c2ccccn2)nc(O)c1O [drawing 455]	0	1 to 25		
O=C(c1nc(-c2ccccn2)nc(O)c1O)N1CCCC1 [drawing 456]	0	0		
O=C(NC1CCCC1)c1nc(-c2ccccn2)nc(O)c1O [drawing 457]	0	0		
CC(C)CN(C)C(=O)c1nc(-c2ccccn2)nc(O)c1O [drawing 458]	0	0		
CC(C)CNC(=O)c1nc(-c2ccccn2)nc(O)c1O [drawing 459]	0	0		
COCCN(C)C(=O)c1nc(-c2ccccn2)nc(O)c1O [drawing 460]	0	0		
O=C(NC1CCC1)c1nc(-c2ccccn2)nc(O)c1O [drawing 461]	0	0		
CC(C)NC(=O)c1nc(-c2nccn2C)nc(O)c1O [drawing 462]	0	0		
CCN(CC)C(=O)c1nc(-c2nccn2C)nc(O)c1O [drawing 463]	0	0		
Cn1ccnc1-c1nc(O)c(O)c(C(=O)N2CCCC2)n1 [drawing 464]	0	0		
Cn1ccnc1-c1nc(O)c(O)c(C(=O)NC2CCCC2)n1 [drawing 465]	0	0		
Cn1ccnc1-c1nc(O)c(O)c(C(=O)N2CCCCC2)n1 [drawing 466]	0	0		
Cn1ccnc1-c1nc(O)c(O)c(C(=O)NC2CCC2)n1 [drawing 467]	0	0		
COC(=O)c1nc(-c2nccn2C)nc(O)c1O [drawing 468]	0	0		
COc1nc(-c2ccccn2)nc(Nc2cnn(C)c2)c1OC [drawing 469]	0	0		
COCCn1cc(Nc2nc(-c3ccccn3)nc(OC)c2OC)cn1 [drawing 470]	0	0		
COC1CCN(c2nc(-c3nccn3C)nn3cc(-c4ccccc4)c(-c4ccccc4)c23)C1 (stereo not shown) [drawing 471]	0	51 to 75		
COc1c(O)nc(-c2ccccn2)nc1Oc1ccc(C(=O)N(C)C)cc1 [drawing 479]			0	0
COc1c(O)nc(-c2ccccn2)nc1Nc1ccccc1 [drawing 480]			0	0
CCn1cc(Nc2nc(-c3ccccn3)nc(O)c2OC)cn1 [drawing 481]			0	0
CCOc1cccc(Nc2nc(-c3ccccn3)nc(O)c2OC)c1 [drawing 482]			0	0
COc1cccc(-c2sc3nc(-c4nccn4C)nc(NC4CCC(OC)C4)c3c2-c2ccccc2)c1F (stereo not shown) [drawing 483]			76 to 100	76 to 100
